# Measurements taken from patent US5260257A, “Thermal transfer sheet” (Dai Nippon Printing Co., Ltd., priority 1991, dated 1993).
# How the values were obtained:
# [1] = ink stability test (precipitation of the dye in the ink observed with the naked eye); format: physicochemical; settings: Table D1; room temperature (20°±3° C.), 48 hr
# Procedure: The following ink composition for the formation of a dye supporting layer was prepared and heated to 70° C. to completely dissolve the ink.
# [2] = system: S. typhimurium TA100, TA98 and TA1538; assay: Ames test (mutagenic test); format: cell-based; settings: positive if reversion colonies twice or more vs control
# Procedure: Ames test was conducted as a mutagenic test.
# Strains used were S. typhimurium TA100, TA98 and TA1538.
# When the increase in the reversion colony was twice or more as compared with that in the case of the control, the mutagenicity was judged as positive, while when the increase in the reversion colony was less than twice as compared with that in the case of the control, the mutagenicity was judged as negative.
# [3] = light fastness test (Example D1 series); format: physicochemical; settings: Table D1; xenon, 50° C., 70 kJ/m^2
# Procedure: (§1) The light fastness test was conducted as follows.
# (§2) Irradiation was conducted by means of a xenon fadeometer Ci35A (manufactured by Atlas) under conditions of a black panel temperature of 50° C. and an integrating irradiation energy of 70 kJ/m^2.
# (§3) The percentage fading was determined from a density change around an initial density of 1.0 according to the following equation.
# (§4) Percentage fading=(1-I/I0)×100 (%)
# (§5) I=optical density after irradiation; and
# (§6) I0 =optical density before irradiation.
# (§7) .largecircle.: less than 20% in the percentage fading
# Δ: 20% or more in the percentage fading
# [4] = light fastness test (xenon fadeometer, percentage fading); format: physicochemical; settings: 70 kJ/m^2
# Procedure: as §1, §2, §3, §4, §5, §6, §7
# X : 20% or more in the percentage fading
# [5] = Table B2, dyes of Table B1, 50° C.
# [6] = Table C2, dyes of Table C1, 50° C.
# [7] = Table A2, dyes of Table A1, 50° C.
# [8] = Table A3, Comparative Examples A1-A6, 50° C.
# [9] = Table B3, Comparative Examples B1-B6, 50° C.
smiles,measurement,setting,value
CCN(CC)c1ccc(N=C2C=C(NC(=O)C3CCCCC3)C(=O)C(Cl)=C2C)c(C)c1 [Comp. Ex. D2],stability of ink,[1],small amount of crystal
same,mutagenicity,[2],negative
same,Light fastness,[3],.largecircle. (less than 20% in the percentage fading)
CCN(CC)c1ccc(N=C2C=C(NC(C)=O)C(=O)C(Cl)=C2C)c(C)c1 [Comp. Ex. D1],stability of ink,[1],large amount of crystal
same,mutagenicity,[2],positive
same,Light fastness,[3],.largecircle. (less than 20% in the percentage fading)
CCN(CC)c1ccc(N=C2C=C(NC(=O)C3CC=CCC3)C(=O)C(Cl)=C2C)c(NC(C)=O)c1 (stereo not shown) [Dye No. 6 in Table B1],Light fastness,[4]; [5],.largecircle. (less than 20% in the percentage fading)
CCN(CC)c1ccc(N=C2C=C(NC(=O)C3CC=CCC3)C(=O)C=C2NC(C)=O)c(C)c1 (stereo not shown) [Dye No. 3 in Table B1],Light fastness,[4]; [5],.largecircle. (less than 20% in the percentage fading)
CCN(CC)c1ccc(N=C2C=C(NC(=O)C3=CCC=CC3)C(=O)C(Cl)=C2C)c(C)c1 [Dye No. 10 in Table B1],Light fastness,[4]; [5],.largecircle. (less than 20% in the percentage fading)
CCN(c1ccccc1)c1ccc(N=C2C=C(NC(=O)C3=CC4C=CC3C4)C(=O)C=C2NC(=O)NC)c(Cl)c1 (stereo not shown) [Dye No. 15 in Table C1],Light fastness,[4]; [6],.largecircle. (less than 20% in the percentage fading)
CCOc1cc(N(CC)CCO)ccc1N=C1C=C(NC(=O)C2CC3C=CC2C3)C(=O)C=C1NC(C)=O (stereo not shown) [Dye No. 10 in Table C1],Light fastness,[4]; [6],.largecircle. (less than 20% in the percentage fading)
CCN(CC)c1ccc(N=C2C=C(NC(=O)C3CC4C=CC3C4)C(=O)C(Cl)=C2C)cc1 (stereo not shown) [Dye No. 6 in Table C1],Light fastness,[4]; [6],.largecircle. (less than 20% in the percentage fading)
CCOc1cc(N(CC)CC)c(OCC)cc1N=C1C=C(NC(=O)C2CC3C=C(C)C2C3)C(=O)C(Cl)=C1C (stereo not shown) [Dye No. 19 in Table C1],Light fastness,[4]; [6],.largecircle. (less than 20% in the percentage fading)
CCN(CC)c1ccc(N=C2C=C(NC(=O)C3CC4C=CC3C4)C(=O)C(Cl)=C2C)c(NC(C)=O)c1 (stereo not shown) [Dye No. 8 in Table C1],Light fastness,[4]; [6],.largecircle. (less than 20% in the percentage fading)
CCN(CC)c1ccc(N=C2C=C(NC(=O)C3CC=CCC3)C(=O)C(Cl)=C2C)c(C)c1 (stereo not shown) [Dye No. 1 in Table B1],Light fastness,[4]; [5],.largecircle. (less than 20% in the percentage fading)
CCN(CCCl)c1ccc(N=C2C=C(NC(=O)C3CCCC3)C(=O)C=C2NC(C)=O)c(NC(=O)NC)c1 [compound 18],Light fastness,[4]; [7],.largecircle. (less than 20% in the percentage fading)
CCN(CCOC)c1ccc(N=C2C=C(NC(=O)C3=CCC=CC3)C(=O)C=C2NC(C)=O)c(NC(C)=O)c1 [Dye No. 19 in Table B1],Light fastness,[4]; [5],.largecircle. (less than 20% in the percentage fading)
"CCN(CC)c1ccc(N=C2C=C(NC(=O)c3ccccc3)C(=O)C(Cl)=C2C)c(C)c1 [Comparative Example A6, reference compound]",Light fastness,[4]; [8],.largecircle. (less than 20% in the percentage fading)
CCOc1cc(N(CC)CC)ccc1N=C1C=CC(=O)C(NC(=O)C2CC=CCC2)=C1 (stereo not shown) [Dye No. 4 in Table B1],Light fastness,[4]; [5],.largecircle. (less than 20% in the percentage fading)
CCN(CC)c1ccc(N=C2C=C(NC(=O)C3CC4C=CC3N4C)C(=O)C(Cl)=C2C)c(C)c1 (stereo not shown) [Dye No. 24 in Table C1],Light fastness,[4]; [6],.largecircle. (less than 20% in the percentage fading)
CCN(CCC#N)c1ccc(N=C2C=C(NC(=O)C3CC3)C(=O)C=C2NS(C)(=O)=O)c(NC(C)=O)c1 [compound 7],Light fastness,[4]; [7],.largecircle. (less than 20% in the percentage fading)
CCN(CCNS(C)(=O)=O)c1ccc(N=C2C=C(NC(=O)C3CC3)C(=O)C=C2NC(C)=O)c(C)c1 [compound 6],Light fastness,[4]; [7],.largecircle. (less than 20% in the percentage fading)
CCN(CCCl)c1ccc(N=C2C=C(NC(=O)C3CC=CCC3)C(=O)C(Cl)=C2C)c(NC(=O)NC)c1 (stereo not shown) [Dye No. 7 in Table B1],Light fastness,[4]; [5],.largecircle. (less than 20% in the percentage fading)
CCN(CCC#N)c1ccc(N=C2C=C(NC(=O)C3CC=CC3)C(=O)C(Cl)=C2C)c(NS(C)(=O)=O)c1 [Dye No. 13 in Table B1],Light fastness,[4]; [5],.largecircle. (less than 20% in the percentage fading)
"CNc1ccc(O)c2c1C(=O)c1c(O)ccc(NC)c1C2=O [Comp. Ex. A4, C.I. Disperse Blue 26, reference compound]",Light fastness,[4]; [8],Δ
same,Light fastness,[4]; [9],Δ
same,Light fastness,"[4]; Table C (C3), Comparative Examples C1-C6, 50° C.",Δ
CCN(CC)c1ccc(N=C2C=CC(=O)C(NC(=O)C3=CC4C=CC3C4)=C2)c(NC(C)=O)c1 (stereo not shown) [Dye No. 12 in Table C1],Light fastness,[4]; [6],.largecircle. (less than 20% in the percentage fading)
CCN(CC)c1ccc(N=C2C=C(NC(=O)C3CCCC3)C(=O)C(Cl)=C2C)cc1 [compound 17],Light fastness,[4]; [7],.largecircle. (less than 20% in the percentage fading)
CCN(CC)c1ccc(N=C2C=C(NC(=O)C3CCCC3)C(=O)C(Cl)=C2C)c(NC(C)=O)c1 [compound 14],Light fastness,[4]; [7],.largecircle. (less than 20% in the percentage fading)
CCN(CCO)c1ccc(N=C2C=C(NC(=O)C3=CCC=CC3)C(=O)C(Cl)=C2C)c(C)c1 [Dye No. 21 in Table B1],Light fastness,[4]; [5],.largecircle. (less than 20% in the percentage fading)
CCN(CC)c1ccc(N=C2C=C(NC(=O)C3CC4C=CC3S4)C(=O)C=C2NC(C)=O)c(C)c1 (stereo not shown) [Dye No. 23 in Table C1],Light fastness,[4]; [6],.largecircle. (less than 20% in the percentage fading)
CCN(c1ccccc1)c1ccc(N=C2C=C(NC(=O)C3CC3)C(=O)C(Cl)=C2C)c(Cl)c1 [compound 8],Light fastness,[4]; [7],.largecircle. (less than 20% in the percentage fading)
"CCN(CC)c1ccc(N=C2C=C(NC(=O)c3ccccc3)C(=O)C(Cl)=C2C)c(C)c1 [Comparative Example B6, reference compound]",Light fastness,[4]; [9],.largecircle. (less than 20% in the percentage fading)
